Columns and labels:
[1] = tested on: Liver Injuries caused by D-galactosamine in Rats; assay: Inhibitory effect against liver injuries caused by D-galactosamine in rats; format: in vivo, Rats (SD, male); conditions: D-galactosamine i.p., serum 24 h
Text: The hepatoprotective effect of the compound of formula (1) was also identified by D-galactosamine model(see, Koji Hase et al., Biol. Pharm. Bull., 20, 4, 381-385, 1997; Jun-ichi Nagakawa et al., J. Pharmacology and Experimental Therapeutics, 264, 1, 1992; Toxicology of the Liver, Raven Press, New York, 1985). The N-acyl galactosamine resulted from the excess administration of D-galactosamine acts as a substrate for UDP-galactosamine or UDP-N-acyl galactosamine. But, the inordinate synthesis of […] and UDP-hexosamine may inhibit the binding of UTP in the liver cells and biosynthsis of UDP-glucose and UDP-galactose, which finally causes the structural and functional changes of the liver cell membranes. Consequently, it results in sporadic necrosis and the increase of ALT and AST values in blood. Since the toxicity caused by D-galactosamine looks similar to the symptoms of viral hepatitis, D-galactosamine model is also used conventionally as a model for viral hepatitis.
The degree of liver damage in the experimental animals was determined by measuring ALT and AST values in blood(see, Biol. Pharm. Bull., 20, 4, 381-385, 1997; Toxicology and Applied Pharmacology, 95, 1-11, 1988), and the hepatoprotective activity was calculated based on the following formula(see, Planta Medica, 55, 127-132, 1989). At this time, the hepatoprotective activity can also be calculated based on the same formula by replacing ALT value with AST value. [formula]
(§1) The hepatoprotective effect of the compound of the present invention was identified according to a known procedure(see, Koji Hase et al., Biol. Pharm. Bull., 20, 4, 381-385, 1997), and the protocol may be described in brief as follows.
Rats(SD, male, 180˜200 g) as the test animal were allowed in a condition of temperature 22±1° C. and relative humidity 60±5%. Feed and water were provided with no restriction while light and darkness were changed at an interval of 12 hours.
The compound of the present invention was suspended in a solvent corn oil, and this suspension was administered in a dose of 2 ml/kg. Each group included 8 test animals, and the test compound was orally administered for once per animal. After 30 minutes from the administration of the test compound, D-galactosamine solution(concentration: 200 mg/ml) in physiological saline was intraperitoneally injected in a dose of 2 ml/kg. As the control compounds, silymarin and DDB were selected.
The test animals were provided with no feed and sufficient water for 24 hours from the administration of D-galactosamine. […] This blood was centrifuged to obtain sera. ALT and AST values in the sera were measured using blood chemistry analyzer(Vitalab, Selectra II, Merck). The statistical significance for the test result of each group was examined based on Student's t-test, and the result was recognized as having a statistical significance when its P value is less than 5%.

[2] = tested on: Fulminant Liver Injuries caused by D-galactosamine/lipopolysaccharide in Mice; assay: Inhibitory effect against fulminant liver injuries caused by D-galactosamine/lipopolysaccharide in mice (survival); format: in vivo, Mice (ICR, male); conditions: D-galactosamine 800 mg/kg + lipopolysaccharide 10 μg/kg i.p., observed 24 hours
Text: Further, the D-galactosamine/lipopolysaccharide model(see, Chris Galanos et al., Proc. Natl. Acad. Sci. USA, 76, 11, 5939-5943, 1979; Koji Hase et al., Biol. Pharm. Bull., 20, 4, 381-385, 1997; Junichi Nagakawa et al., The Journal of Pharmacology and Experimental Therapeutics, 264, 1, 1992; Nolan J. D., Hepatology, 1, 458-465, 1981; Wendel A., Methods Enzymol., 186, 675-680, 1990) which is also used in the present invention for the identification of hepatoprotective effect is based on the phenomena that liver injuries are caused by immune responses in mouse. It has been reported that such kind of liver injuries are caused not by direct tissue lesions due to the chemicals but by secretion of tumor necrosis factor(TNF)-α, reactive oxygen, etc.(see, Hishinuma I. et al., Hepatology, 12, 1187-1191, 1990, Hase K. et al., Phytother. Res., 10, 387-392, 1996). Here, D-galactosamine supresses protein biosynthesis and as well highly increases the sensitivity of the liver cells for lipopolysaccharide by reducing uridine nucleotide.
as §1
Mice(ICR, male, 27˜35 g) as the test animal were allowed in a condition of temperature 22±1° C. and relative humidity 60±5%. Feed and water were provided with no restriction while light and darkness were changed at an interval of 12 hours.
The compound of the present invention was suspended in a solvent corn oil, and this suspension was administered in a dose of 10 ml/kg. Each group included 10 test animals, and the test compound was orally administered once per animal. After 1 hour from the administration of the test compound, D-galactosamine and lipopolysaccharide each of which dissolved in physiological saline were intraperitoneally injected at the same time in doses of 800 mg/kg and 10 μg/kg, respectively. As the control compounds, SY-640[N-methyl-N-(3,4-methylenedioxyphenacyl)acetamide; EP0350251], silymarin and DDB were selected.
The statistical significance for the test result of each group was examined based on Student's t-test, and the result was recognized as having a statistical significance when its P value is less than 5%.

SMILES | Inhibitory Effect against Liver Injuries (%) ALT ([1]; dose 5.6 mg/kg p.o. once) | Inhibitory Effect against Liver Injuries (%) ALT ([1]; dose 16.7 mg/kg p.o. once) | Inhibitory Effect against Liver Injuries (%) ALT ([1]; dose 50 mg/kg p.o. once) | Survival Rate (%) ([2]; dose 50 mg/kg oral once) | Inhibitory Effect against Liver Injuries(%) AST ([1]; dose 5.6 mg/kg p.o. once) | Inhibitory Effect against Liver Injuries(%) AST ([1]; dose 16.7 mg/kg p.o. once) | Inhibitory Effect against Liver Injuries(%) AST ([1]; dose 50 mg/kg p.o. once) | Survival Rate (%) ([2]; dose 5.6 mg/kg oral once)
COc1cc(/C=N/OCc2ccccn2)cc2c1OCO2 [Compound 13, 6-(2-((2-pyridyl)methoxy)-2-azavinyl)-4-methoxybenzo [d]1,3-dioxolane] | 34% | 35% | 67% | 90% | – | – | – | –
c1csc(-c2ccc3c(c2)OCO3)n1 [Compound 21, 2-(benzo[3,4-d]1,3-dioxolan-5-yl)-1,3-thiazole] | 27% | 32% | 56% | – | 29% | 29% | 46% | 100%
COC(=O)c1cc(OC)c2c(c1-c1c(C(=O)OC)cc(OC)c3c1OCO3)OCO2 [DDB, reference compound] | – | – | 28% | 80% | – | – | 12% | –
CC(=O)SCC(=O)c1ccc2c(c1)OCO2 [Compound 28, 1-(benzo[3,4-d]1,3-dioxolan-5-yl)-2-acetylthioethan-1-one] | 42% | 51% | 52% | – | 48% | 55% | 55% | 100%
O/N=C/c1ccc2c(c1)OCO2 [Compound 1] | – | 5% | 12% | 90% | – | – | – | –

Source: patent publication US6693126B2, “Dihydroxyphenyl derivatives for hepatoprotection and treatment of liver diseases” (Choongwae Pharm. Co., Ltd., priority 2000, dated 2004)
